Patent US10768157B2, “Materials and methods for the detection of trace amounts of substances in biological and environmental samples” (THE FLORIDA INTERNATIONAL UNIVERSITY BOARD OF TRUSTEES, priority 2015, dated 2020)
Like-named read-outs stand apart in the source and are kept apart here.

Experiments:
[1] = Selectivity: imprinting factor of multi-template sol-gel MIP vs NIP; type: binding; conditions: extraction from protein precipitated milk
Procedure: The selectivity of MIP particles for the six sulfonamides was tested. For these experiments were used SPE cartridges packed with 30 mg of MIP and NIP particles respectively. Standard solutions containing 5 ng μL^−1 were passed through the SPE cartridges by holding imprinted or non-imprinted particles at a flow rate of 1 mL/min by the aid of a vacuum system. Several antibiotics have similar structure to the sulfonamides as well as antibiotics with different structure and functional groups were studied (chloramphenicol, thiamphenicol, florphenicol, flumequine, sulfisoxazole, sulfamethoxazole, sulfadimethoxine). The extraction on each antibiotic based on the optimum conditions and the extracted antibiotics were determined by the HPLC system. Imprinting factor (IF) of MIP particles was determined by the following equation: […] Capacity Studies […] So, SPE was prepared for MIP and NIP. Imprinting factor (IF), which is an indicators, express the adsorption affinity of recognition sites to the imprinted sulfonamides. Table 12 summarizes the IF values for the examined sulfonamides when extraction was carried out from protein precipitated milk.

[2] = Maximum adsorption capacity of the sol-gel molecularly imprinted sorbent (six sulfa drugs); type: binding; conditions: 30 mg MIP, mixture of 6 sulfa drugs 10-1000 mg/L
Procedure: In order to calculate the sorption capacity at equilibrium a SPE cartridge packed with 30 mg of MIP particles was used. Experiments under optimum conditions were carried out sequentially on the same SPE cartridge. In each subsequent test, the initial concentration was increased in a range 10-1000 ng μL^-1 and the final concentration was determined by HPLC-DAD. The amount of adsorbed (mg/g) was calculated by using the formula reported by Vanderborght and Van […]:00002} Were Ci is the initial concentration (mg/L), Ce is the equilibrium concentration (mg/L), V is the volume (L) and m is the mass (g) of the adsorbent. […] The final Ce concentrations were calculated on HPLC. The maximum capacity (Q, mg/g) for each of the six compounds was determined with the above equation. The results are represented in FIG. 12.

[3] = Selectivity study of CAP-imprinted sol-gel MIP vs sol-gel NIP in MIPSPE column (imprinting factor, selectivity coefficient), HPLC-UV; type: binding; conditions: for Selectivity Coefficient (SC): SC=IF CAP/IF other analyte, untreated raw milk; for Imprinting Factor (IF): extraction from untreated raw milk, sol-gel MIP vs NIP
Description: To establish the selectivity of a sol-gel MIP for a particular analyte, a non-imprinted polymer (sol-gel NIP) is synthesized in the same way as sol-gel MIP but in the absence of the template.
The IF reflects the tendency of the MIP to selectively recognize and bind the template. Competitive adsorption of MIP and NIP for CAP was investigated in a MIPSPE column system. The IF and the selectivity coefficient (SC) are indicators of the adsorption affinity of recognition sites to the imprinted CAP.
The selectivity of sol-gel MIP particles for CAP was studied. For this purpose, 30 mg of sol-gel MIP or sol-gel NIP particles were packed in SPE cartridges. Aqueous sample solutions containing 10 ng/mL CAP was passed through the SPE cartridges holding imprinted or non-imprinted particles at a flow rate of 1 mL/min by the aid of a vacuum system. Elution of the extracted chloramphenicol was performed using methanol and the concentration of chloramphenicol was determined by the HPLC-UV method.
Imprinting factor (IF) of sol-gel MIP particles was determined by the following equation: IF=Kmip/Knip where Kmip and Knip are the partition coefficient of analyte for sol-gel MIP and sol-gel NIP, respectively, which are determined by K=Cb/Cu where Cb is the amount of CAP bound by the sol-gel MIP or sol-gel NIP and Cu is the concentration of free chloramphenicol that remained in the solution.
Selectivity coefficient (SC) was calculated by the following equation: SC=IFCAP/IFother_analyte

[4] = Retention (sorption) capacity of the CAP-imprinted sol-gel sorbent; type: binding; conditions: 30 mg polymer saturated with 100 mg/L CAP solution
Procedure: To determine the retention capacity (or sorption capacity) of the sol-gel derived CAP-imprinted polymer (maximum amount of the template retained by 1 g of MIP), 30 mg of polymer were saturated with CAP by passing several 5.0 mL aliquots of 100 mg/L CAP solution.

[5] = cited from earlier work
[6] = Stability of CAP standard solutions; type: physicochemical
[7] = Honey, Magnetic SPE, LC-MS/MS (ref a)

Row | Compound | Imprinting Factor (IF) [1] | Adsorption Capacity, Q [2] [mg/g] | Imprinting Factor (IF) [3] | other results
1 | CC(=O)NS(=O)(=O)c1ccc(N)cc1 [Sulfacetamide] | 2.70 | 5.1 | – | –
2 | Nc1ccc(S(=O)(=O)Nc2ncccn2)cc1 [Sulfadiazine] | 1.70 | 4.2 | – | –
3 | Cc1ccnc(NS(=O)(=O)c2ccc(N)cc2)n1 [Sulfamerazine] | 1.13 | 3.7 | – | –
4 | Nc1ccc(S(N)(=O)=O)cc1 [Sulfanilamide] | 1.56 | – | – | –
5 | Nc1ccc(S(=O)(=O)Nc2nccs2)cc1 [Sulfathiazole] | 3.90 | 9.8 | – | –
6 | CS(=O)(=O)c1ccc([C@@H](O)[C@@H](CO)NC(=O)C(Cl)Cl)cc1 [THF, thiamphenicol] | – | – | 1.9 | Selectivity Coefficient (SC) [3]: 2.6
7 | Chloramphenicol [CAP] | – | – | 5 | Retention capacity / adsorption capacity of CAP [4]: 23 mg/g; Retention capacity / adsorption capacity of CAP ([4]; listed as chloramphenicol): 23.0 mg/g; Imprinting Factor ([5]; Honey, MISPE, HPLC-UV (ref f)): 2.2; Adsorption Capacity [5, 7]: 5.53 mg/g; Imprinting Factor [5, 7]: 1.375; Imprinting Factor ([5]; Honey/Urine, MISPE, LC-MS/MS (ref d)): 2.43; Adsorption Capacity ([5]; Milk, MISPE, HPLC-UV (ref e)): 2.22 mg/g; Imprinting Factor ([5]; Milk, MISPE, HPLC-UV (ref e)): 1.38; Stability of working standard solutions ([6]; 0.05-20 ng/μL in water, refrigerated): stable for the same period of time; Stability of stock solution ([6]; 100 mg/L in water, kept at 4° C.): at least 3 months; Imprinting factor (IF), maximum ([3]; CAP, protein precipitated milk, MIP relative to NIP): 9.7
8 | Sulfamethizole | 4.52 | – | – | –
9 | florfenicol [FFC] | – | – | 1.8 | Selectivity Coefficient (SC) [3]: 2.8
